Results taken from patent US5521199A, “Piperidinyl compounds as neurokinin receptor antagonists” (Zeneca Limited, priority 1993, dated 1996).
Where a name gives a salt, the structure may show the parent alone.

Assays:
guinea pig trachea = biological target: T1, guinea pig trachea (Cavia porcellus, UniProt Q64077); assay: Guinea Pig Trachea Assay (Test B); assay type: cell-based; details: antagonism of NKA or [β-ala8]-NKA(4-10) contraction; -log molar KB; read-out: pKB (Test B) (converted)
T1 construct: The trachea are removed, trimmed of excess tissue and divided into two segments; from tissue; host or cells: trachea of male guinea pigs, rings in tissue baths
T1 sequence (Q64077 1-402): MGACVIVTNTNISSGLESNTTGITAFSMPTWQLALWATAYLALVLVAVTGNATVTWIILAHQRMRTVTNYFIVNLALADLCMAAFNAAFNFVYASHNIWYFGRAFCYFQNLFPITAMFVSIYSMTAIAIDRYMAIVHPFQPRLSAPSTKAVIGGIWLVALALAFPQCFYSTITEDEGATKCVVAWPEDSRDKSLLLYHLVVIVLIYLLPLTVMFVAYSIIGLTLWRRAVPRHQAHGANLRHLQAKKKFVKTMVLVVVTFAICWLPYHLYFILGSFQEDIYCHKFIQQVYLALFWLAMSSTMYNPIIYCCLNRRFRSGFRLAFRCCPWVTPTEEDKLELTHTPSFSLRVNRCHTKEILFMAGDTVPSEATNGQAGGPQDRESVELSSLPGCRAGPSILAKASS
Procedure: Guinea Pig Trachea Assay (Test B)
In the test described below either NKA or [β-ala^8 ]-NKA(4-10) is used as an agonist. The chosen agonist is referred to as AG throughout the description.
Male guinea pigs are killed by a sharp blow to the back of the head. The trachea are removed, trimmed of excess tissue and divided into two segments. […] Initial tension placed on each tissue is 1 g, which is maintained throughout a 0.5 to 1.5 hour equilibration period before addition of other drugs. Contractile responses are measured on a Grass polygraph via Grass FT-03 force transducers.
Tissues are challenged repetitively with a single concentration of AG (10 nM) with intervening 30 min periods with washing to allow the tension to return to baseline levels. […] Percent inhibition is determined when a Compound produces a statistically significant (p<0.05) reduction of the contraction and is calculated using the second contractile response as 100%.
Potencies of selected Compounds are evaluated by calculating apparent dissociation constants (KB) for each concentration tested using the standard equation: […]
where dose ratio=antilog[(AG -log molar EC50 without Compound)--(AG -log molar EC50 with Compound)]. The KB values may be converted to the negative logarithms and expressed as -log molar KB (i.e. pKB). […] The EC50 values are converted to the negative logarithms and expressed as -log molar EC50. […]

human NK2 receptor = biological target: T2, human NK2 receptor (Homo sapiens, UniProt P21452); assay: Neurokinin A (NKA) Receptor-binding Assay (Test A); details: 3H-NKA, MELM, 60 min at 25° C., pH 7.4
T2 sequence (P21452 1-398): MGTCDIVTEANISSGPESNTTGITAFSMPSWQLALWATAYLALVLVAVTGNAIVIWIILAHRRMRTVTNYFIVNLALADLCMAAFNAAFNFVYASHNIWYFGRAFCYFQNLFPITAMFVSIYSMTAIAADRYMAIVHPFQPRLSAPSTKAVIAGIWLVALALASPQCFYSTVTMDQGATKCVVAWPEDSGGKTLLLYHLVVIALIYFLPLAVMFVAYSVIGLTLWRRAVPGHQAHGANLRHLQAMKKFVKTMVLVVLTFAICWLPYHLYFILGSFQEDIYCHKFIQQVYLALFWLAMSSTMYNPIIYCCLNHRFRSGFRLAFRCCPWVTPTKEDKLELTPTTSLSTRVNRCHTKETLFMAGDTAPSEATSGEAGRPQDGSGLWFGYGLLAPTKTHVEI
Procedure: Membrane preparations (MELM) prepared from the MEL cells containing high-affinity NK2 receptors were prepared according to a published protocol (D. Aharony, et al., Neuropeptides (1992) 23, 121-130) with the following minor modifications: (1) Iodoacetamide (1 mM) was included in the homogenization buffer; (2) Homogenization was as published but for a shorter period of 10 seconds once and at a slower speed (setting 10); and (3) The equilibration step with KCl/EDTA was not performed.

NK2 receptor = assay: Guinea Pig Labored Abdominal Breathing (Dyspnea) Assay (Test C); assay type: in vivo; details: oral, two hours prior to challenge with the agonist [β-ala8]-NKA(4-10) aerosol; all five animals fully protected
Procedure: Guinea Pig Labored Abdominal Breathing (Dyspnea) Assay (Test C)
Using the clear plastic chamber described previously by Snyder et al. to secure guinea pigs for a head-only aerosol exposure to bronchoconstrictor agonists, agonist is administered by aerosol to six conscious guinea pigs simultaneously during each maneuver. The tachykinin NK2-selective agonist, [β-ala^8 ]-NKA(4-10), 3×10^-5 M, is aerosolized from a Devilbiss Model 25 ultrasonic nebulizer into an air stream entering the chamber at a rate of 2 L/minute.
Guinea pigs (275-400 g) are fasted for approximately 16 hours prior to experimentation. Compounds to be evaluated for blockade of effects of [β-ala^8 ]-NKA(4-10) or their vehicle (10% PEG400 in saline) are administered p.o. or i.v. at various times before aerosol agonist challenge. All animals are pretreated with atropine (10 mg/kg, j.p., 45 minutes pretreatment) indomethacin (10 mg/kg, i.p., 30 minutes pretreatment), propranolol (5 mg/kg, i.p., 30 minutes pretreatment), and thiorphan (1 mg/ml aerosol for 5 minutes, 15 minutes pretreatment)
Aerosol challenge with the agonist produces an initial increase in respiratory rate followed by a decrease with early signs of minor involvement of the abdominal muscles. […] Time, in seconds, from the onset of aerosol challenge to this end point is determined for each animal by using a stopwatch. […]

CC(=O)OCCC1CCN(CCC(CN(C)C(=O)c2ccccc2)c2ccc(Cl)c(Cl)c2)CC1 (centres unmarked) [Example 10, N-[2-(3,4-Dichlorophenyl)-4-[4-(2-acetoxyethyl)piperidino]butyl]-N-methylbenzamide hydrochloride]
Kb (guinea pig trachea): 15.8 nM
Ki (human NK2 receptor): 40 nM

CCC(O)(CC)C1CCN(CC[C@H](CN(C)C(=O)c2ccccc2)c2ccc(Cl)c(Cl)c2)CC1.Cl [Example 16, (S)-N-[2-(3,4-Dichlorophenyl)-4-[4-(1-ethyl-1-hydroxypropyl)piperidino]butyl]-N-methylbenzamide hydrochloride]
Kb (guinea pig trachea): 3.98 nM
Ki (human NK2 receptor): 1.5 nM
protection (Test C) (NK2 receptor): 100%
